# Laboratory results taken from article PMC4331650 (Biochimica et Biophysica Acta, 2014).
# Substitutions are numbered along the chain they refer to. Like-named read-outs stand apart in the source and are kept apart here.
# How the values were obtained:
# WT CLC-Ka = molecular target: T1, WT CLC-Ka (Homo sapiens, UniProt P51800); conditions: Xenopus oocytes, cited from earlier work
# T1 sequence (P51800 1-687): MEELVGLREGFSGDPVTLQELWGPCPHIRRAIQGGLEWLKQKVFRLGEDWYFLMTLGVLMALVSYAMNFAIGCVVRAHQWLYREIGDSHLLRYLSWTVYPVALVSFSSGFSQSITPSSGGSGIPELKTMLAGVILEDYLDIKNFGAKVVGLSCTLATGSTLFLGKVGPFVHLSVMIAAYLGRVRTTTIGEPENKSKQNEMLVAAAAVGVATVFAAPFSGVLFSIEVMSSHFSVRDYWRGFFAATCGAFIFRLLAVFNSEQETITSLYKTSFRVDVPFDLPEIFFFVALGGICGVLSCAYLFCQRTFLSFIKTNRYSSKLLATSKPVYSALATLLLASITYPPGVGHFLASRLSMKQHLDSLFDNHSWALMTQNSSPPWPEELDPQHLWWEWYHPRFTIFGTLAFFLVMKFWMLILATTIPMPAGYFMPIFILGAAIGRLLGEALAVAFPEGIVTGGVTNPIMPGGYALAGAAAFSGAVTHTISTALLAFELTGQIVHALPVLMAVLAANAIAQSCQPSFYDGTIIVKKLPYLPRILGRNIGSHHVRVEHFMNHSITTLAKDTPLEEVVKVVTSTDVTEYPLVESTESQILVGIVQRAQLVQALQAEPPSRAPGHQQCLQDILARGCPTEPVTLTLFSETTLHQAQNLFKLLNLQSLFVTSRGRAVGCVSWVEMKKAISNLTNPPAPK
# T1 sequence (Q8WZ55 1-320 Y98A partner): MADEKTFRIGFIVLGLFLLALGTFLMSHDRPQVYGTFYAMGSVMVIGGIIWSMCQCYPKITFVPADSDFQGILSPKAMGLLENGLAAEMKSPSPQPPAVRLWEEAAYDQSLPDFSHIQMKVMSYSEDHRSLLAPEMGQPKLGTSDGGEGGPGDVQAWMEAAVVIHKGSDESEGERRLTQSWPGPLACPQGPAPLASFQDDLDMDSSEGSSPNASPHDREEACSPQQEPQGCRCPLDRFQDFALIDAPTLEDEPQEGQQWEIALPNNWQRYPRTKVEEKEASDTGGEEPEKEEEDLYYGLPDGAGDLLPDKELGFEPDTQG
# N257A CLC-K1/barttin = molecular target: T2, N257A CLC-K1/barttin (Rattus norvegicus, UniProt Q06393, N257A); assay: NFA effect on N257A CLC-K1 with barttin, voltage clamp in Xenopus oocytes; type: cell-based; conditions: 200 μM NFA
# T2 sequence (Q06393 1-687 N257A): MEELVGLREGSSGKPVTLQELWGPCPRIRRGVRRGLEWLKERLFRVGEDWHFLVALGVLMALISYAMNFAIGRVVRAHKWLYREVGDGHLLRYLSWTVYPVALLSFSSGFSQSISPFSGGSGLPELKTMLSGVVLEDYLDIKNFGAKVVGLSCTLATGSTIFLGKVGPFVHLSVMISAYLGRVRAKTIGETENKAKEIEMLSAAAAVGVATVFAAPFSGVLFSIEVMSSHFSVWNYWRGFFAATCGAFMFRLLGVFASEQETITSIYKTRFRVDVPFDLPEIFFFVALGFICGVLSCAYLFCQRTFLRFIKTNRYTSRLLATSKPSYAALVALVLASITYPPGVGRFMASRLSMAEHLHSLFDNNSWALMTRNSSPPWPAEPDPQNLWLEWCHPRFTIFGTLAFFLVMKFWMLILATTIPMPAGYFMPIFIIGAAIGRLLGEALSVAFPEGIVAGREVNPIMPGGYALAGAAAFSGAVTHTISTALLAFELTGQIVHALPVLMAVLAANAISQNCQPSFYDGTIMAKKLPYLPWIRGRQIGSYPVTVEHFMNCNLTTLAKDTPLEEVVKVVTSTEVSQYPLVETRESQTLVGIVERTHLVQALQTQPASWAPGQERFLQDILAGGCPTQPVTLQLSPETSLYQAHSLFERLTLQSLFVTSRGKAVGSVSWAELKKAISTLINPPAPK
# T2 sequence (Q8WZ55 1-320 Y98A partner): T1 sequence (Q8WZ55 1-320 Y98A partner)
# F256A CLC-Ka = molecular target: T3, F256A CLC-Ka (Homo sapiens, UniProt P51800, F256A); type: cell-based; conditions: 200 μM NFA, 60 mV
# T3 sequence (P51800 1-687 F256A): T1 sequence (P51800 1-687) with F256A
# T3 sequence (Q8WZ55 1-320 Y98A partner): T1 sequence (Q8WZ55 1-320 Y98A partner)
structure (smiles),measurement,setting,value
"O=C(O)c1cccnc1Nc1cccc(C(F)(F)F)c1 [NFA, niflumic acid]",effect on CLC-Ka currents,WT CLC-Ka; [NFA]ext higher than 0.5 mM,block
same,effect on CLC-Ka currents,WT CLC-Ka; [NFA]ext ≤ 0.5 mM,increases
same,sensitivity to NFA compared with WT,N257A CLC-K1/barttin,only weakly more sensitive
same,average current increase,"F256A CLC-Ka; SD, n = 5 patches",39 +/− 13
same,single channel current in NFA (average),F256A CLC-Ka; n = 3,1.75 ± 0.10 pA
same,distance of Gaussian components of the amplitude histogram in NFA,F256A CLC-Ka; patch of Fig. 4,1.8 pA
same,increase of mean current in the patch,F256A CLC-Ka; the single patch shown in Fig. 4,about 53 fold
